This note sets out measurements from patent EP0349681A1, “Methods for treating hydrocarbon recovery operations and industrial waters” (PETROLITE CORPORATION, priority 1988, dated 1990).

Experiment [1] can be described thus: CO2 brine sparge test for sweet corrosive systems. The conditions noted are these: 50 ppm active component, 24 hour test, 3.5 hours precorrosion, by weight loss. How it is done:
The C02 brine sparge test is a reliable, quick test to screen compounds as corrosion inhibitors in "sweet" corrosive systems. A laboratory brine solution is sparged with stirring with 99.9% grade C02 for about one hour before immersing cleaned and weighed corrosion coupons. A M-1010 Pair@ meter was used to monitor the corrosion rate of each test cell. After one to two hours the corrosion rate reached a "steady state", but a precorrosion period of 3.5 hours was used for consistency before the test inhibitor was added. The precorroding period in the […] brine solution is very important. This provides a precor- roded test surface thereby minimizing surface preparation variations and also provides at least a minimal corrosion product layer without inhibitor in it against which the test inhibitor must work. This step is important, because in the equipment, the inhibitor is only rarely used from day one and then it is used on rusted steel and not freshly sand-blasted surfaces.
The inhibitors were injected below the brine surface at 50 ppm based on the active component. The 24 hour test period was monitored with a M-1010 PAIR meter as a "back-up", but the corrosion rates and percent protection were determined by weight loss measurements.

The subject of a further experiment is Anaerobes. Briefly: standard laboratory biocide screening, mixed culture. The experiment is classed as cell-based. The conditions noted are these: 800 ppm, 24 hours exposure, extinction dilution in Difco Fluid Thioglycollate broth, 35° C. The protocol:
(§1) The compound of Example 4 was tested for efficacy using a standard laboratory screening procedure. The compounds were tested against a mixed culture of aerobic and anaerobic bacteria, including sulfate reducers. The test medium consisted of aged artificial sea water with 0.1 gms/liter of nutrient broth added. The medium was purged with nitrogen to remove oxygen and inoculated with 10 mis/liter of a mixed culture of aerobic and anaerobic bacteria obtained from oilfield waters. Aliquots (50 ml) were dispensed into sterile, nitrogen-filled serum vials. Concentrations of the test compounds were prepared by adding the appropriate amount of a 5% solution of the compound to 50 mls of test medium. After 24 hours, exposure levels of aerobic, anaerobic and sulfate reducing bacteria were enumerated.

In another experiment the test system is Sulfate Reducers. The experiment is described as above. The conditions noted are these: 800 ppm, 24 hours exposure, extinction dilution in modified Sulfate API broth, 35° C. The experiment is classed as cell-based. The protocol:
as §1

The next experiment deals with Aerobes. Described as above. It is filed as cell-based. The conditions noted are these: 24 hours exposure, Standard Plate Count, Difco Plate Count Agar, 35° C, read-out: Aerobes (% killed). How it is done: as §1

Each structure is given as a SMILES string.

For `S=C(S)NCCCN1CCN(CCCNC(=S)S)CC1` [Example 3], the “Percent Protect” value in experiment [1] was 96. Still for that read-out and setting: in the case of `S=C(S)NCCN(CCNC(=S)S)C(=S)S` [Example 7] it was 92; in that of `CCCCCCCCN(CCCNC(=S)S)C(=S)S` [Example 8], 96. Regarding `CCCCN(CCCC)C(=S)S` [Example 1], the “Percent Protect” value in experiment [1] amounted to 92. As for `S=C(S)NCCCCC(CCCNC(=S)S)CNC(=S)S` (centres unmarked) [Example 4], in the experiment with Anaerobes, the “Surviving Bacteria/ml Anaerobes” value worked out at 10 mL⁻¹. For the same molecule, the “Surviving Bacteria/ml Sulfate Reducers” value with Sulfate Reducers amounted to 10 mL⁻¹. In the experiment with Aerobes, the killing at 800 ppm was 99%. Moreover, in experiment [1], the “Percent Protect” value is recorded as 99. As for `S=C(S)NCCN(CCN(CCN(CCNC(=S)S)C(=S)S)C(=S)S)C(=S)S` [Example 5], the “Percent Protect” value in experiment [1] is 97. Same read-out and setting: for `S=C(S)NCCCCCCN(CCCCCCNC(=S)S)C(=S)S` [Example 6] the value was 96.

With `S=C(S)NCCNC(=S)S` [Example 2], the “Percent Protect” value in experiment [1] was determined as 85.
